# Test results reported in patent US6780838B2, “Compounds for treating fungal pathologies of the oral cavity” (priority 2001, dated 2004).
# Where no end group is shown, it is not given here.
# Key:
# [1] = amino acids added to C-terminal α-MSH (11-13); cited from earlier work
# C. albicans [2] = experiment: C. albicans colony forming units (viability) after incubation with peptide; type: cell-based; conditions: for relative potency in reducing C. albicans viability: 10^−4 M melanocortin peptides (FIG. 2 legend: all 10^−6 M); for reducing C. albicans CFU at higher concentrations: up to 10^−4 M, results not shown in the figures
# Protocol: C. albicans (clinical isolate) was obtained from the collection of the Department of Microbiology, Ospedale Maggiore di Milano and maintained on Sabouraud's agar slants and periodically transferred to Sabouraud's agar plates and incubated for 48 hours at 28° C. To prepare a stationary growth phase yeast, a colony was taken from the agar plate and transferred into 30 ml Sabouraud-dextrose broth and incubated for 72 hours at 32° C. Cells were centrifuged and suspended in Hank's balanced salt solution (“HBSS”) to the desired concentration. Viability, determined by the exclusion of 0.01% methylene blue, remained >98%.
# C. albicans (1×10^6/ml in HBSS) was incubated in the presence of absence or (1-13) (SEQ ID NO: […]) or (11-13) (SEQ ID NO: 1) at concentrations in the range of 10^−15 M to 10^−6 M for 2 hours at 37° C. Cells were then washed in cold distilled water and diluted with HBSS to a concentration of 100 organisms/ml. One-ml aliquots were dispensed on blood agar plates and incubated for 48 hours at 37° C. Organism viability was estimated from the number of colonies formed.
# In subsequent experiments using familiar procedures we compared activity of α-MSH (4-10) (SEQ ID NO: 2), (6-13) (SEQ ID NO: 3), (11-13) (SEQ ID NO: 1), ACTH (SEQ ID NO: 5) (1-39), (18-39) (SEQ ID NO: 6) and fluconazole, the latter an established antifungal agent. Melanocortin peptides and fluconazole were tested in concentrations of 10^−6 M to 10^−4 M. There were at least six replicates for each concentration of peptide. […]
# [3] = stereochemistry analogs, Hiltz et al. 1991; cited from earlier work
# C. albicans [4] = experiment: C. albicans killing by human neutrophils; type: cell-based; conditions: FIG. 4; 10^−12 M to 10^−4 M; 2 hours at 37° C.; p<0.01
# Protocol: Venous blood (20 ml) from health volunteers was anticoagulated with heparin. Neutrophils were isolated using dextran sedimentation and Ficoll-Hypaque (Sigma Chemical Co., St. Louis, […]., USA) centrifugation. Erythrocytes were lysed via hypotonic shock. Neutrophils represented at least 97% of the cell suspension. Cell viability, estimated by trypan blue exclusion, was >98%. Neutrophils were suspended to a final concentration in HBSS. C. albicans (1×^6) were opsonized with human AB serum in a shaking water bath for 30 minutes at 37° C. Organisms were then incubated with neutrophils in medium or in medium with α-MSH (1-13) (SEQ ID NO: 4) or α-MSH(11-13) (SEQ ID NO: 1) in concentrations of 10^31 15 M to 10^31 4 M in a shaking water bath for 2 hours at 37° C. After incubation, the culture tubes were placed on ice stop growth and extracellular organisms were washed twice with centrifugation at 1000×g at 4° C. A 2.5% sodium desoxycholoate solution was added to obtain a suspension of […]. Two 1/100 serial dilutions in HBSS were made to obtain a final suspension of 100 cells/ml. Aliquots of 1 ml were dispensed on blood agar plates and incubated for 48 hours at 37° C. Colony forming units (CFUs) were counted at the end of the incubation period. Experiments were run in triplicate and repeated using blood from 5 different donors.
# C. albicans [5] = experiment: C. albicans colony forming units (viability) after incubation with peptide; type: cell-based; conditions: FIG. 1; peptide 10^−12 M to 10^−4 M; 2 hours at 37° C.; p<0.01 vs. control
# [6] = system: cAMP content of C. albicans; experiment: cAMP content of permeabilized C. albicans (EIA); type: cell-based; conditions: FIG. 5; 10^−6 M, 3 minutes; increase of same order of magnitude as equimolar forskolin
# Protocol: C. albicans ([…]), permeabilized with toluene/ethanol, were incubated at 37° C. with continuous shaking in the presence of 10^31 6 M α-MSH(1-13) (SEQ ID NO: 4), (11-13) (SEQ ID NO: 1), forskolin, an agent known to increase intracellular cAMP, or in medium alone. The reaction was stopped after 3 minutes by the addition of ice cold ethanol, cAMP was measured in duplicate using a commercial enzyme immunoassay (EIA) kit (Amersham, United Kingdom) after extraction via the liquid-phase method according to manufacturer's instructions. The effect of forskolin (10^−6 M) on C. albicans colony formation was determined using the same procedure as for α-MSH peptides.
# [7] = versus α-MSH; cited from earlier work
substance,measurement,setting,value
"8-13 sequence: α-MSH 8-13 sequence (RWGKPV; ends and bridges not checked; UniProt P01189 145-150, looked up, fragment)",antipyretic potency relative to the 11-13 sequence,[1],greater than that of the 11-13 sequence
"9-13 sequence: α-MSH 9-13 sequence (WGKPV; ends and bridges not checked; UniProt P01189 146-150, looked up, fragment)",antipyretic potency relative to the 11-13 sequence,[1],almost devoid of activity
"10-13 sequence: α-MSH 10-13, glycine added to the 11-13 sequence (GKPV; ends and bridges not checked; UniProt P01189 147-150, looked up, fragment)",antipyretic potency relative to the 11-13 sequence,[1],slightly decreased the potency
ACTH (1-39): adrenocortitrophic hormone (1-39) (SYSMEHFRWGKPVGKKRRPVLVYPAGEDDEASEAFPLEF),relative potency in reducing C. albicans viability,C. albicans [2]; FIG. 2,did not reduce C. albicans viability
same,reducing C. albicans CFU at higher concentrations,C. albicans [2],ineffective
ACTH fragment (18-39): ACTH fragment (18-39) (CLIP) (RPVLVYPAGEDDEASEAFPLEF),relative potency in reducing C. albicans viability,C. albicans [2]; FIG. 2,did not reduce C. albicans viability
same,reducing C. albicans CFU at higher concentrations,C. albicans [2],ineffective
Ac-[D-K^11]-α-MSH 11-13-NH2,anti-inflammatory potency/activity relative to the L-form tripeptide α-MSH 11-13,[3],same general potency
HFRWGKPV (Ac-HFRWGKPV-NH2) [α-MSH (6-13)],relative potency in reducing C. albicans viability,C. albicans [2]; FIG. 2,most effective
KPV (Ac-Lys-Pro-Val-NH2) [α-MSH (11-13)],killing of C. albicans by human neutrophils,C. albicans [4],enhanced the killing
same,relative potency in reducing C. albicans viability,C. albicans [2]; FIG. 2,most effective
same,C. albicans colony forming units (CFU),C. albicans [5],greatly reduced
same,cAMP content in the yeast,[6],enhanced
SYSMEHFRWGKPV [α-MSH (1-13)],killing of C. albicans by human neutrophils,C. albicans [4],enhanced the killing
same,relative potency in reducing C. albicans viability,C. albicans [2]; FIG. 2,most effective
same,C. albicans colony forming units (CFU),C. albicans [5],greatly reduced
same,cAMP content in the yeast,[6],enhanced
VPK-Ac-CC-Ac-KPV (Ac-CKPV; also: disulfide-linked dimer through Cys),effectiveness against microbes compared with α-MSH (11-13),C. albicans [2],at least as effective
same,C. albicans colony forming units (CFU),C. albicans [5],inhibited C. albicans colony formation
"[Nle^4,D-Phe^7]-α-MSH",potency in reducing fever relative to the parent peptide,[7],approximately 10 times
"α-MSH (4-10): core α-MSH sequence (4-10), SEQ ID NO: 2",inhibition of CFU,"C. albicans [2]; FIG. 2, 10^−4 M (FIG. 2 legend: 10^−6 M), p<0.01 vs. control",approximately 50%
